The target in assay [1] is T1, human vasopressin V1a receptor (Homo sapiens, UniProt P37288). Kind of assay: Human vasopressin V1a receptor binding assay. The conditions noted are these: 1321N1 cell membranes, [3H]vasopressin; read-out: Ki (nM) on hV1a cell line. The gist of the method:
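Radioligand competition on membranes from cells expressing human V1a receptor; incubation 60 minutes at 27° C., non-specific binding with 1.2×10^−6 M unlabeled (Arg^8)-vasopressin, filtration separation. Ki by Cheng-Prusoff using Scatchard-derived KD, from at least two independent experiments.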

For assay [2], the target named is T1, human vasopressin V1a receptor. Put plainly: Functional assay on human vasopressin V1a receptor expressing cell line (intracellular Ca2+ fluorescence). The format is cell-based. The conditions noted are these: 1321N1 cells, (Arg8)-vasopressin at EC80; read-out: IC50 (nM) on hV1a cell line.

T1 sequence (P37288 whole entry): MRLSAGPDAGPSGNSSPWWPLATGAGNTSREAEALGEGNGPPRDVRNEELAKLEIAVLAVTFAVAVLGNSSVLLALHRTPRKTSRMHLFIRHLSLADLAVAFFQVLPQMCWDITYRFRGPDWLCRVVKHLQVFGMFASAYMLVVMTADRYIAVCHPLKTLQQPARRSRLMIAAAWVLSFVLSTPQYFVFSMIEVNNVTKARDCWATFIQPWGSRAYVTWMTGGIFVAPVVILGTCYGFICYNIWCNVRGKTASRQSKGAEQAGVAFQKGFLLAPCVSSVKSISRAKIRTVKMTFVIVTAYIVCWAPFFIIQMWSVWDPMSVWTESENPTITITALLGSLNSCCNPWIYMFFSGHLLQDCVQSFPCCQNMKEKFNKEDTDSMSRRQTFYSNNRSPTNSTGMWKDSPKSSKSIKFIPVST

Usually Ki stands for a dissociation constant, usually derived from enzyme kinetics or from competition with a known ligand. The IC50 is the point on the concentration scale where inhibition reaches its midpoint. Consider `CN(C)CCC(=O)N[C@@H]1Cc2cc(Cl)ccc2-n2c(nnc2[C@H]2CC[C@H](Oc3ccccn3)CC2)C1` [Example 179, N-{(5R)-8-chloro-1-[trans-4-(pyridin-2-yloxy)cyclohexyl]-5,6-dihydro-4H-[1,2,4]triazolo[4,3-a][1]benzazepin-5-yl}-N^3,N^3-dimethyl-β-alaninamide], for which, in assay [1], the inhibition constant Ki amounted to 0.2 nM. The half-maximal inhibitory concentration (IC50) in assay [2] is 1.4 nM.
As to `OC1Cc2cc(Cl)ccc2-n2c(nnc2N2CCC3(CC2)OCc2ccccc23)C1` (stereo not shown) [Example 172, 8-chloro-1-(1′H,3H-spiro[2-benzofuran-1,4′-piperidin]-1′-yl)-5,6-dihydro-4H-[1,2,4]triazolo[4,3-a][1]benzazepin-5-ol], the inhibitory constant (Ki) in assay [1] worked out at 0.7 nM. In addition, the half-inhibitory concentration (IC50) in assay [2] was 5.6 nM.
In the case of `COC1Cc2cc(Cl)ccc2-n2c(nnc2C2CCN(C3CCOCC3)CC2)C1` (stereo not shown) [Example 170, 8-chloro-5-methoxy-1-[1-(tetrahydro-2H-pyran-4-yl)piperidin-4-yl]-5,6-dihydro-4H-[1,2,4]triazolo[4,3-a][1]benzazepine], the Ki in assay [1] is 15.3 nM. For the same compound, the 50% inhibitory concentration (IC50) in assay [2] stood at 38 nM.
Turning to `CC(C)N1CC[C@]2(CC[C@@H](c3nnc4n3-c3ccc(Cl)cc3CC(O)C4)CC2)C1=O` (stereo partly shown) [Example 116, (5r,8r)-8-(8-chloro-5-hydroxy-5,6-dihydro-4H-[1,2,4]triazolo[4,3-a][1]benzazepin-1-yl)-2-(propan-2-yl)-2-azaspiro[4,5]decan-1-one], the inhibition constant (Ki) in assay [1] amounted to 0.7 nM. For the same compound, in assay [2], the half-maximal inhibitory concentration (IC50) came out at 2.1 nM.
For `Clc1ccc2c(c1)C[C@H](NC1CCCC1)Cc1nnc([C@H]3CC[C@H](Oc4ccccn4)CC3)n1-2` [Example 154, (5S)-8-chloro-N-cyclopentyl-1-[trans-4-(pyridin-2-yloxy)cyclohexyl]-5,6-dihydro-4H-[1,2,4]triazolo[4,3-a][1]benzazepin-5-amine], the inhibitory constant (Ki) in assay [1] came to 0.8 nM. Besides, the half-inhibitory concentration (IC50) in assay [2] amounted to 21 nM.
Take `CC[C@]1(OC)CC[C@H](c2nnc3n2-c2ccc(Cl)cc2CC2(C3)OCCO2)CC1` [Example 241, 8′-chloro-1′-(trans-4-ethyl-4-methoxycyclohexyl)-4′H,6′H-spiro[1,3-dioxolane-2,5′-[1,2,4]triazolo[4,3-a][1]benzazepine]]: in assay [1], the Ki came out at 0.4 nM. For the same compound, the half-inhibitory concentration (IC50) in assay [2] is 2.6 nM.
With `CC(C)NC1Cc2cc(Cl)ccc2-n2c(nnc2C2CCN(c3ccccn3)CC2)C1` (stereo not drawn) [Example 135, 8-chloro-N-(propan-2-yl)-1-[l-(pyridin-2-yl)piperidin-4-yl]-5,6-dihydro-4H-[1,2,4]triazolo[4,3-a][1]benzazepin-5-amine], the inhibition constant (Ki) in assay [1] is 2.9 nM. For the same compound, in assay [2], the IC50 came out at 54 nM.
The matching figures for `CN(C)C1Cc2cc(Cl)ccc2-n2c(nnc2N2CCC3(CC2)OCc2ccccc23)C1` (stereo not shown) [Example 163]: 1 nM and 6.2 nM.
In the same order, the values of `FC(F)(F)CN[C@H]1Cc2cc(Cl)ccc2-n2c(nnc2[C@H]2CC[C@H](Oc3ccccn3)CC2)C1` [Example 224, (5S)-8-chloro-1-[trans-4-(pyridin-2-yloxy)cyclohexyl]-N-(2,2,2-trifluoroethyl)-5,6-dihydro-4H-[1,2,4]triazolo[4,3-a][1]benzazepin-5-amine] are 0.7 nM and 3.6 nM.
In the same order, the values of `O=C([C@H]1CC[C@H](c2nnc3n2-c2ccc(Cl)cc2CC2(C3)OCCO2)CC1)N1CCOCC1` [Example 108, Trans-4-(8′-chloro-4′H,6′H-spiro[1,3-dioxolane-2,5′-[1,2,4]triazolo[4,3-a][1]benzazepin]-1′-yl)cyclohexyl(morpholin-4-yl)methanone] are 0.2 nM and 4.9 nM.
`COC(=O)[C@H]1CC[C@H](c2nnc3n2-c2ccc(Br)cc2CC(=O)C3)CC1` [Example 86, methyl trans-4-(8-bromo-5-oxo-5,6-dihydro-4H-[1,2,4]triazolo[4,3-a][1]benzazepin-1-yl)cyclohexane carboxylate]: the inhibitory constant (Ki) in assay [1] turned out to be 2.2 nM. Also, in assay [2], the 50% inhibitory concentration (IC50) was found to be 12 nM.
As to `OCCOC1Cc2cc(Cl)ccc2-n2c(nnc2[C@H]2CC[C@H](Oc3ccccn3)CC2)C1` (stereo partly drawn) [Example 136, 2-({8-chloro-1-[trans-4-(pyridin-2-yloxy)cyclohexyl]-5,6-dihydro-4H-[1,2,4]triazolo[4,3-a][1]benzazepin-5-yl}oxy)ethanol], the Ki in assay [1] was 0.2 nM. Moreover, in assay [2], the concentration for half-maximal inhibition (IC50) is 1.6 nM.
In the same order, the values of `COC1Cc2cc(F)ccc2-n2c(nnc2[C@H]2CC[C@H](Oc3ccccn3)CC2)C1` (stereo partly drawn) [Example 134, 8-fluoro-5-methoxy-1-[trans-4-(pyridin-2-yloxy)cyclohexyl]-5,6-dihydro-4H-[1,2,4]triazolo[4,3-a][1]benzazepine] are 0.2 nM and 1.5 nM.
With `Clc1ccc2c(c1)CC1(Cc3nnc(N4CCC5(CC4)OCc4ccccc45)n3-2)OCCO1` [Example 155, 8′-chloro-1′-(1′H,3H-spiro[2-benzofuran-1,4′-piperidin]-1′-yl)-4′H,6′H-spiro[1,3-dioxolane-2,5′-[1,2,4]triazolo[4,3-a][1]benzazepine]], the inhibition constant (Ki) in assay [1] came to 0.04 nM. The IC50 in assay [2] was determined as 0.7 nM.
In the same order, the values of `Clc1ccc2c(c1)CC(NC1CCC1)Cc1nnc([C@H]3CC[C@H](Oc4ccccn4)CC3)n1-2` (stereo partly drawn) [Example 27, 8-chloro-N-cyclobutyl-1-[trans-4-(pyridin-2-yloxy)cyclohexyl]-5,6-dihydro-4H-[1,2,4]triazolo[4,3-a][1]benzazepine-5-amine] are 1.1 nM and 7 nM.
The matching figures for `O=C(CO)NC1Cc2cc(Cl)ccc2-n2c(nnc2[C@H]2CC[C@H](Oc3ccccn3)CC2)C1` (stereo partly drawn) [Example 15, N-{8-chloro-1-[trans-4-(pyridin-2-yloxy)cyclohexyl]-5,6-dihydro-4H-[1,2,4]triazolo[4,3-a][1]benzazepin-5-yl}-2-hydroxyacetamide]: 0.4 nM and 3.7 nM.
The matching figures for `CC[C@]1(OC)CC[C@H](c2nnc3n2-c2ccc(Cl)cc2CC(N(C)C)C3)CC1` (stereo partly drawn) [Example 233, 8-chloro-1-(trans-4-ethyl-4-methoxycyclohexyl)-N,N-dimethyl-5,6-dihydro-4H-[1,2,4]triazolo[4,3-a][1]benzazepin-5-amine]: 6.9 nM and 53 nM.
Regarding `CC(C)NC1Cc2cc(C(F)(F)F)ccc2-n2c(nnc2[C@H]2CC[C@H](Oc3ccccn3)CC2)C1` (stereo partly drawn) [Example 36, N-(propan-2-yl)-1-[trans-4-(pyridin-2-yloxy)cyclohexyl]-8-(trifluoromethyl)-5,6-dihydro-4H-[1,2,4]triazolo[4,3-a][1]benzazepine-5-amine], the inhibitory constant (Ki) in assay [1] stood at 36 nM. The IC50 in assay [2] worked out at 610 nM.
Take `Clc1ccc2c(c1)CC1(Cc3nnc([C@H]4CC[C@H](Nc5ccccn5)CC4)n3-2)OCCO1` [Example 193, N-[trans-4-(8′-chloro-4′H,6′H-spiro[1,3-dioxolane-2,5′-[1,2,4]triazolo[4,3-a][1]benzazepin]-1′-yl)cyclohexyl]pyridin-2-amine]: in assay [1], the inhibitory constant (Ki) was found to be 0.1 nM. The IC50 in assay [2] turned out to be 0.9 nM.
Consider `COC1Cc2ccccc2-n2c(nnc2[C@H]2CC[C@H](Oc3ccccn3)CC2)C1` (stereo partly drawn) [Example 109, 5-methoxy-1-[trans-4-(pyridin-2-yloxy)cyclohexyl]-5,6-dihydro-4H-[1,2,4]triazolo[4,3-a][1]benzazepine], for which the Ki in assay [1] amounted to 0.4 nM. The IC50 in assay [2] came to 2.7 nM.

For the origin of these results see patent US11298363B2, “Triazolobenzazepines as vasopressin V1a receptor antagonists” (RICHTER GEDEON NYRT., priority 2017, dated 2022).
